This experiment has as its system mice. As to the kind of experiment: Blood glucose concentration kinetics of IGF-2 vs. insulin in a glucose tolerance test. In kind it is in vivo, mouse. The following applies: IGF-2 800 μg/kg. The source says: IGF-2 therefore provides an effect that mimics insulin within the body, and that effect is referred to herein as an “insulinomimetic” effect. […] In this example, administering IGF-2 can provide better results than administering insulin with respect to blood glucose levels, even when only a single dose was used. Without being bound by this theory, it is possible that the IGF-2 combines with a number of binding proteins in the blood and its active free form is then released slowly from the complex.

On to insulin-like growth factor 2 [IGF-2], for which, where the note is “compared with FIG. 13”, the “time at which glucose levels began to rise relative to disappearance of IGF-2 from the blood” value is on record as “two hours after the IGF-2 was no longer detectable in the blood”. Further, the “glucose level after administration” value (glucose tolerance test in mice, insulin 1 unit per kg) is “the glucose level decreased”. Besides, the “time after which the recovery in glucose levels began” value (single dose, insulin 1 unit per kg) is listed as “after six hours”.

Source of the values: patent publication US12447198B2, “Peptides and fragments for treating diabetes and associated metabolic diseases” (Betavive Ltd., priority 2021, dated 2025).
